Results from patent US20180000089A1, “NOVEL MICROBIOCIDES” (Syngenta Participations AG, priority 2015, published 2018).

How the values were obtained:
Gaeumannomyces Graminis = experiment: Gaeumannomyces graminis / liquid culture (take-all of cereals); format: cell-based; settings: PDB, 24° C., inhibition of growth determined photometrically 4-5 days after application, read-out: disease control
Procedure: 13 Gaeumannomyces Graminis/Liquid Culture (Take-all of Cereals): Mycelial fragments of the fungus from cryogenic storage were directly mixed into nutrient broth (PDB potato dextrose broth). […] The test plates were incubated at 24° C. and the inhibition of growth was determined photometrically 4-5 days after application.

[1] = system: Glomerella lagenarium (Colletotrichum Lagenarium); experiment: Glomerella lagenarium (Colletotrichum lagenarium) / liquid culture (anthracnose); format: cell-based; settings: Colletotrichum orbiculare, PDB, 24° C., inhibition of growth measured photometrically 3-4 days after application, read-out: disease control
Procedure: (§1) 10 Glomerella lagenarium (Colletotrichum Lagenarium)/Liquid Culture (Anthracnose): Conidia of the fungus from cryogenic storage were directly mixed into nutrient broth (PDB potato dextrose broth). After placing a DMSO solution of test compound into a 96-well microtiter plate at an application rate of 200 ppm, the nutrient broth containing the fungal spores was added. The test plates were incubated at 24° C. and the inhibition of growth was measured photometrically 3-4 days after application.

[2] = system: Mycosphaerella graminicola (Septoria tritici); experiment: Mycosphaerella graminicola (Septoria tritici) / liquid culture (Septoria blotch); format: cell-based; settings: Zymoseptoria tritici, PDB, 24° C., inhibition of growth determined photometrically 4-5 days after application, read-out: disease control
Procedure: as §1, with “12 Mycosphaerella graminicola (Septoria tritici)/Liquid” for “10 Glomerella lagenarium (Colletotrichum Lagenarium)/Liquid”, “(Septoria Blotch):” for “(Anthracnose):”, “determined” for “measured”, “4-5” for “3-4”

Pythium ultimum = Pythium ultimum / liquid culture (seedling damping off); format: cell-based; settings: Globisporangium ultimum, potato dextrose broth, 24° C., inhibition of growth determined photometrically 2-3 days after application, read-out: disease control
Procedure: 8 Pythium ultimum/Liquid Culture (Seedling Damping Off) Mycelia fragments and oospores of a newly grown liquid culture of the fungus were directly mixed into nutrient broth (potato dextrose broth). After placing a DMSO solution of test compound into a 96-well format microtiter plate at an application rate of 200 ppm, the nutrient broth containing the fungal mycelia/spore mixture was added. The test plates were incubated at 24° C. and the inhibition of growth was determined photometrically 2-3 days after application.

Plasmopara viticola = experiment: whole plant or invertebrate; format: in vivo; settings: foliar, read-out: disease control
[3] = system: Thanatephorus cucumeris (Rhizoctonia solani); experiment: Thanatephorus cucumeris (Rhizoctonia solani) / liquid culture (foot rot, damping-off); format: cell-based; settings: PDB, 24° C., inhibition of growth determined photometrically 3-4 days after application, read-out: disease control
Procedure: 16 Thanatephorus cucumeris (Rhizoctonia solani)/liquid culture (foot rot, damping-off): Mycelia fragments of a newly grown liquid culture of the fungus were directly mixed into nutrient broth (PDB potato dextrose broth). After placing a DMSO solution of the test compounds into a 96-well microtiter plate at an application rate of 200 ppm, the nutrient broth containing the fungal material was added. The test plates were incubated at 24° C. and the inhibition of growth was determined photometrically 3-4 days after application.

Fusarium culmorum = experiment: microbe, parasite or virus in culture; format: cell-based; settings: read-out: disease control
[4] = system: Monographella nivalis (Microdochium nivale); experiment: Monographella nivalis (Microdochium nivale) / liquid culture (foot rot cereals); format: cell-based; settings: PDB, 24° C., inhibition of growth determined photometrically 4-5 days after application, read-out: disease control
Procedure: as §1, with “14 Monographella nivalis (Microdochium nivale)/liquid culture (foot rot cereals):” for “10 Glomerella lagenarium (Colletotrichum Lagenarium)/Liquid Culture (Anthracnose):”, “determined” for “measured”, “4-5” for “3-4”

Sclerotinia sclerotiorum = Sclerotinia sclerotiorum / liquid culture (cottony rot); format: cell-based; settings: PDB, 24° C., inhibition of growth determined visually 3-4 days after application, read-out: disease control
Procedure: 17 Sclerotinia sclerotiorum/liquid culture (cottony rot): Mycelia fragments of a newly grown liquid culture of the fungus were directly mixed into nutrient broth (PDB potato dextrose broth). After placing a (DMSO) solution of the test compounds into a microtiter plate (96-well format) the nutrient broth containing the fungal material was added. The test plates were incubated at 24° C. and the inhibition of growth was determined visually 3-4 days after application.

[5] = system: Botryotinia fuckeliana (Botrytis cinerea); experiment: Botryotinia fuckeliana (Botrytis cinerea) / liquid culture (gray mould); format: cell-based; settings: Vogels broth, 24° C., inhibition of growth determined photometrically 3-4 days after application, read-out: disease control
Procedure: as §1, with “9 Botryotinia fuckeliana (Botrytis cinerea)/liquid culture (Gray mould):” for “10 Glomerella lagenarium (Colletotrichum Lagenarium)/Liquid Culture (Anthracnose):”, “(Vogels” for “(PDB potato dextrose”, “determined” for “measured”

[6] = system: Mycosphaerella arachidis (Cercospora arachidicola); experiment: Mycosphaerella arachidis (Cercospora arachidicola) / liquid culture (early leaf spot); format: cell-based; settings: PDB, 24° C., inhibition of growth determined photometrically 4-5 days after application, read-out: disease control
Procedure: as §1, with “11 Mycosphaerella arachidis (Cercospora arachidicola)/Liquid” for “10 Glomerella lagenarium (Colletotrichum Lagenarium)/Liquid”, “(Early Leaf Spot):” for “(Anthracnose):”, “determined” for “measured”, “4-5” for “3-4”

Cc1ccc(-c2cc3c(cc2Cl)COB3O)cc1C [Compound 2]
≥ 80%: inhibition of growth at 200 ppm (Gaeumannomyces Graminis) | inhibition of growth at 200 ppm [1] | inhibition of growth at 200 ppm [2] | inhibition of growth at 200 ppm (Pythium ultimum)
155 to 165 °C: melting point

Cc1ccccc1-c1cc2c(cc1Cl)COB2O [Compound 4]
≥ 80%: pest or weed control at 200 ppm (Plasmopara viticola) | inhibition of growth at 200 ppm [1] | inhibition of growth at 200 ppm [2] | inhibition of growth at 200 ppm [3] | inhibition of growth at 200 ppm (Pythium ultimum)

Cc1cccc(-c2cc3c(cc2Cl)COB3O)c1 [Compound 5]
≥ 80%: inhibition of growth at 200 ppm [1] | inhibition of growth at 200 ppm [2] | inhibition of growth at 200 ppm [3] | inhibition of growth at 200 ppm (Pythium ultimum) | inhibition of growth at 200 ppm (Fusarium culmorum)

Cc1ccc(-c2cc3c(cc2Cl)COB3O)cc1 [Compound 6]
≥ 80%: inhibition of growth at 200 ppm [1] | inhibition of growth at 200 ppm [2] | inhibition of growth at 200 ppm [3] | inhibition of growth at 200 ppm (Pythium ultimum) | inhibition of growth at 200 ppm (Fusarium culmorum)

COc1ccc(-c2cc3c(cc2Cl)COB3O)cc1 [Compound 8, 5-chloro-1-hydroxy-6-(4-methoxyphenyl)-3H-2,1-benzoxaborole]
≥ 80%: inhibition of growth at 200 ppm [4] | inhibition of growth at 200 ppm (Gaeumannomyces Graminis) | inhibition of growth at 200 ppm [1] | inhibition of growth at 200 ppm [2] | inhibition of growth at 200 ppm [3] | inhibition of growth at 200 ppm (Pythium ultimum)
105 to 115 °C: melting point

OB1OCc2cc(Cl)c(-c3ccc(O)cc3)cc21 [Compound 11]
≥ 80%: inhibition of growth at 200 ppm [4] | pest or weed control at 200 ppm (Plasmopara viticola) | inhibition of growth at 200 ppm (Pythium ultimum)

COc1ccc(OC)c(-c2cc3c(cc2Cl)COB3O)c1 [Compound 12]
≥ 80%: inhibition of growth at 200 ppm [4] | inhibition of growth at 200 ppm (Gaeumannomyces Graminis) | pest or weed control at 200 ppm (Plasmopara viticola) | inhibition of growth at 200 ppm [1] | inhibition of growth at 200 ppm [2] | inhibition of growth at 200 ppm (Pythium ultimum)
95 to 115 °C: melting point

Cc1nc2c(-c3cc4c(cc3Cl)COB4O)cccc2s1 [Compound 13, 4-(5-chloro-1-hydroxy-3H-2,1-benzoxaborol-6-yl)-2-methyl-1,3-benzothiazole]
≥ 80%: inhibition of growth at 200 ppm [4] | inhibition of growth at 200 ppm (Gaeumannomyces Graminis) | inhibition of growth at 200 ppm [1] | inhibition of growth at 200 ppm [2] | inhibition of growth at 200 ppm (Pythium ultimum)

Cc1nc2cc(-c3cc4c(cc3Cl)COB4O)ccc2s1 [Compound 14, 5-(5-chloro-1-hydroxy-3H-2,1-benzoxaborol-6-yl)-2-methyl-1,3-benzothiazole]
≥ 80%: inhibition of growth at 200 ppm [4] | pest or weed control at 200 ppm (Plasmopara viticola) | inhibition of growth at 200 ppm (Pythium ultimum)

Cc1nc2cccc(-c3cc4c(cc3Cl)COB4O)c2s1 [Compound 15, 7-(5-chloro-1-hydroxy-3H-2,1-benzoxaborol-6-yl)-2-methyl-1,3-benzothiazole]
≥ 80%: inhibition of growth at 200 ppm [4] | pest or weed control at 200 ppm (Plasmopara viticola) | inhibition of growth at 200 ppm (Pythium ultimum)

OB1OCc2cc(Cl)c(-c3cccc4ncoc34)cc21 [Compound 16]
≥ 80%: inhibition of growth at 200 ppm [4] | inhibition of growth at 200 ppm (Gaeumannomyces Graminis) | inhibition of growth at 200 ppm [1] | inhibition of growth at 200 ppm [2] | inhibition of growth at 200 ppm (Pythium ultimum)

OB1OCc2cc(Cl)c(-c3cc(Br)ccc3-n3cccn3)cc21 [Compound 17]
≥ 80%: inhibition of growth at 200 ppm [4] | inhibition of growth at 200 ppm (Gaeumannomyces Graminis) | inhibition of growth at 200 ppm [1] | inhibition of growth at 200 ppm [2] | inhibition of growth at 200 ppm (Pythium ultimum)

OB1OCc2cc(Cl)c(-c3cc(-n4cccn4)ccc3Br)cc21 [Compound 18]
≥ 80%: inhibition of growth at 200 ppm [4] | inhibition of growth at 200 ppm (Gaeumannomyces Graminis) | inhibition of growth at 200 ppm [1] | inhibition of growth at 200 ppm [2] | inhibition of growth at 200 ppm (Pythium ultimum)

CC(=O)Nc1ccc(F)cc1-c1cc2c(cc1Cl)COB2O [Compound 19, N-[2-(5-chloro-1-hydroxy-3H-2,1-benzoxaborol-6-yl)-4-fluoro-phenyl]acetamide]
≥ 80%: inhibition of growth at 200 ppm [2] | inhibition of growth at 200 ppm (Pythium ultimum) | inhibition of growth at 200 ppm (Fusarium culmorum)

CC(=O)Nc1ccc(F)c(-c2cc3c(cc2Cl)COB3O)c1 [Compound 20, N-[3-(5-chloro-1-hydroxy-3H-2,1-benzoxaborol-6-yl)-4-fluoro-phenyl]acetamide]
≥ 80%: inhibition of growth at 200 ppm [4] | inhibition of growth at 200 ppm (Gaeumannomyces Graminis) | inhibition of growth at 200 ppm (Sclerotinia sclerotiorum) | inhibition of growth at 200 ppm [5] | inhibition of growth at 200 ppm [1] | inhibition of growth at 200 ppm [2] | inhibition of growth at 200 ppm [6] | inhibition of growth at 200 ppm (Pythium ultimum) | inhibition of growth at 200 ppm (Fusarium culmorum)

OB1OCc2cc(Cl)c(-c3cccc4[nH]c(-c5cscn5)nc34)cc21 [Compound 21]
≥ 80%: inhibition of growth at 200 ppm [5] | inhibition of growth at 200 ppm [6] | inhibition of growth at 200 ppm (Pythium ultimum)

Cc1cc(C2CC2)nc(Nc2ccccc2-c2cc3c(cc2Cl)COB3O)n1 [Compound 22]
≥ 80%: inhibition of growth at 200 ppm [4] | inhibition of growth at 200 ppm [5]

Cc1cc(C2CC2)nc(Nc2cccc(-c3cc4c(cc3Cl)COB4O)c2)n1 [Compound 23]
≥ 80%: inhibition of growth at 200 ppm [4]

Cc1cc(C2CC2)nc(Nc2ccc(-c3cc4c(cc3Cl)COB4O)cc2)n1 [Compound 24]
≥ 80%: inhibition of growth at 200 ppm [4]

COc1ccccc1-c1cc2c(cc1F)COB2O [Compound 25]
≥ 80%: inhibition of growth at 200 ppm [4] | inhibition of growth at 200 ppm (Sclerotinia sclerotiorum) | pest or weed control at 200 ppm (Plasmopara viticola) | inhibition of growth at 200 ppm [1] | inhibition of growth at 200 ppm [2] | inhibition of growth at 200 ppm [6] | inhibition of growth at 200 ppm (Pythium ultimum) | inhibition of growth at 200 ppm (Fusarium culmorum)
50 to 65 °C: melting point

COc1ccc(-c2cc3c(cc2F)COB3O)cc1 [Compound 26]
≥ 80%: inhibition of growth at 200 ppm [4] | inhibition of growth at 200 ppm [1] | inhibition of growth at 200 ppm [2] | inhibition of growth at 200 ppm (Pythium ultimum) | inhibition of growth at 200 ppm (Fusarium culmorum)

COc1cccc(-c2cc3c(cc2F)COB3O)c1 [Compound 27, 5-fluoro-6-(3-methoxy-phenyl)-3H-benzo[c][1,2] oxaborol-1-ol]
≥ 80%: inhibition of growth at 200 ppm [4] | inhibition of growth at 200 ppm (Sclerotinia sclerotiorum) | pest or weed control at 200 ppm (Plasmopara viticola) | inhibition of growth at 200 ppm [1] | inhibition of growth at 200 ppm [2] | inhibition of growth at 200 ppm [6] | inhibition of growth at 200 ppm (Pythium ultimum) | inhibition of growth at 200 ppm (Fusarium culmorum)
118 to 120 °C: melting point

N#Cc1ccc(-c2cc3c(cc2F)COB3O)cc1 [Compound 29]
≥ 80%: inhibition of growth at 200 ppm [4] | inhibition of growth at 200 ppm (Pythium ultimum)
270 to 272 °C: melting point

COC(=O)c1cc(-c2cc3c(cc2Cl)COB3O)ccc1OC [Compound 30]
≥ 80%: inhibition of growth at 200 ppm [4] | inhibition of growth at 200 ppm (Pythium ultimum)

OB1OCc2cc(F)c(-c3ccc(Cl)c(Cl)c3)cc21 [Compound 34]
243 to 245 °C: melting point
